Source: BindingDB's records for doi:10.1016/j.bmcl.2016.04.018 (Merck Research Laboratories, 2016)

Assay: Inhibition of human ERG expressed in HEK293 cells assessed as reduction in S35-MK-0499 binding

O=C(Nc1cccc(Cl)c1)N1CCOc2ccc(-c3ccncc3)cc2C1
IC50: 8.34 µM
